Earlier results, collected in patent US20200253951A1, “COMBINATION OF AN […] AGENT WITH […]/OR DO[…] FOR USE IN PREVENTING/STOPPING OF AXIAL MYOPIA IN HUMAN” (priority 2016, published 2020).

Assays:
axial myopia = details: one drop of 1% Atropine collirium at bedtime, chinese children, placebo controlled
conjunctiva = details: pediatric population, atropine 0,1%, 0,05% and 0,01%

CN1[C@@H]2CC[C@H]1C[C@@H](OC(=O)C(CO)c1ccccc1)C2 (some centres unmarked) [Atropine]
subjects in whom development of axial myopia was halted (stopping the elongation of the bulb) (axial myopia): 90% | subjects who developed ocular redness and itching (conjunctiva): around 5%
